From patent publication US20190160156A1, “Use of Acid Stable Proteases in Animal Feed, Preferably to Increase Performance of Cocc-Vaccinated Broiler Chickens” (Novozymes A/S, priority 2011, published 2019)

Tested on: male birds Cobb X Cobb chicks
Experiment: Floor pen feeding trial of cocci-vaccinated birds with ProAct and enzyme combinations (Example 3)
Type: in vivo, male broiler chickens (Cobb X Cobb)
Settings: Day 42, male Cobb X Cobb broilers
Description: A floor pen trial was conducted using day old male birds Cobb X Cobb chicks. A total of 2,160 were allocated to the study. The experiment consisted of 48 pens of 45 male broiler chickens. Treatments were replicated in eight (8) blocks with six (6) treatments randomized in each. The birds were fed nutritionally-adequate basal diets based on corn/soybean meal and adjusted to the bird age by feeding a starter diet from day 1 to 16 and a grower diet from day 17 to 32 and a finisher diet from day 33 to 42. The 6 treatments were as follows:
As treatment RONOZYME® enzyme products, supplied by DSM Nutritional Products, Kaiseraugst, Switzerland have been used.
Ronozyme®AX=80% Ronozyme®WX+20% Ronozyme®A
Ronozyme® ProAct=pure protease product.
All birds received Cocci Vac® B on day 1 of age administered nasally in the hatchery except the positive control birds that were given a standard dose of the coccidiostat Salinomcyin of 60 g/ton of feed throughout the study
At the end of the trial at day 42 the average bird weight (Avg. Wt. Gain) and the average feed consumption (Feed Consump.) were determined and the Feed Conversion Ratio (FRC) was calculated by dividing the feed intake by the weight gain for each treatment

CC[C@@H](C(=O)[C@@H](C)[C@@H](O)[C@H](C)[C@@H]1O[C@@H]([C@@H](CC)C(=O)O)CC[C@@H]1C)[C@H]1O[C@]2(C=C[C@@H](O)[C@]3(CC[C@@](C)([C@H]4CC[C@](O)(CC)[C@H](C)O4)O3)O2)[C@H](C)C[C@@H]1C [Salinomcyin 60 g/t, Salinomycin]
Avg. Wt. Gain (average bird weight): 2.490 a | Feed Consump. (average feed consumption): 191.58 a | FCR (feed intake divided by weight gain): 1.719 days
